From paper PMC11637483, “Dissecting caspase-2-mediated cell death: from intrinsic PIDDosome activation to chemical modulation” (Protein & Cell, 2024) come the findings set out here.

Where two headings read alike, the source gives them in different places.

The subject of assay [1] is HeLa-CASP2/CASP3/GSDMD TKO + CASP2 cells (human caspase-2). Description: ATP-based cell viability (CellTiter-Glo) in HeLa TKO cells with exogenous caspase-2 expression. To be noted: for EC50: Homo sapiens, HeLa, ATP-based viability, HeLa TKO cells with exogenous caspase-2, titrated compound. The text has this:
Specific chemical compounds are powerful tools for dissecting target-related signaling mechanisms in biological contexts ([Beck et al., 2022]; [Zhang et al., 2012]). Prompted by this notion and possibly to identify a compound that could activate the PIDDosome, we designed a cell death-based high-throughput chemical screen in HeLa cells, in which a triple knockout of CASP2, CASP3, and GSDMD were constructed. CASP3 and GSDMD deficiency served as the background to minimize compound-induced nonspecific cytotoxicity and undesired pyroptosis. Using the triple knockout cells as the control, additional expression of exogenous caspase-2 allows the identification of compounds that can specifically activate the caspase-2-BID pathway and trigger apoptosis through caspase-7. […] In accordance with the apoptosis induction, HUHS015 induced evident processing of caspase-2 expressed in the triple-knockout cells (Fig. 3B). This indicated activation of caspase-2 as the protease-deficient C320A mutant of caspase-2 was not processed upon HUHS015 treatment (Fig. 3B). Accordingly, expression of caspase-2 C320A rendered no cell death in response to HUHS015 treatment (Fig. 3B).
Figure 3. Chemical screen identifies HUHS015 as an agonist of human caspase-2. (A) Screen raw data and selectivity analyses of the compound plate containing HUHS015. The ATP-based viability data of both HeLa-CASP2^−/−CASP3^−/−GSDMD^−/− (TKO) (control group) and TKO cells with exogenous caspase-2 expression (experimental group) are shown. The ratios of the cell viability between the two groups are calculated with 3 as a cutoff for positive compound hit selection. (B) HUHS015-induced cell death depends on caspase-2 activity. HeLa TKO cells expressing WT or enzymatically deficient C320A mutant of caspase-2 were treated with HUHS015. ATP-based cell viability and immunoblotting of caspase-2 cleavage are shown. (C and F) The structures and potencies of HUHS15 (C) and its optimized derivative HUHS15-036 (F). HeLa TKO cells with exogenous caspase-2 expression were treated with titrated compounds. The ATP-based viability data were plotted with compound concentration for EC50 calculation. (D) BID is required for HUHS15-induced caspase-2-dependent cell death. […] Processing of caspase-2, -3, and -7 was analyzed by immunoblotting. […] ATP-based cell viability in panels (B and D) is expressed as mean ± s.d. from three technical replicates. […]
Cell viability was measured by the ATP assay using the CellTiter-Glo® Luminescent Cell Viability Assay kit (Promega).
Drug-related Screening Library (25 × 384-well plate, more than 7,000 compounds) was used for the chemical screen in the TKO HeLa cells rescued with exogenous caspase-2 expression. […] After treatment for 12 h, the cell viability was measured by the ATP assay. […]
Background: ATP-based viability assays read luminescence as a measure of living cells.

Assay [2] concerns caspase-2-expressing HeLa cells with BID, RAIDD or PIDD1 knockout. The assay can be described thus: Compound-induced caspase-2 activation and cell death in pathway-gene knockout HeLa cells. The format is cell-based, human. As to the method:
Figure 3. Chemical screen identifies HUHS015 as an agonist of human caspase-2. (A) Screen raw data and selectivity analyses of the compound plate containing HUHS015. The ATP-based viability data of both HeLa-CASP2^−/−CASP3^−/−GSDMD^−/− (TKO) (control group) and TKO cells with exogenous caspase-2 expression (experimental group) are shown. The ratios of the cell viability between the two groups are calculated with 3 as a cutoff for positive compound hit selection. (B) HUHS015-induced cell death depends on caspase-2 activity. HeLa TKO cells expressing WT or enzymatically deficient C320A mutant of caspase-2 were treated with HUHS015. ATP-based cell viability and immunoblotting of caspase-2 cleavage are shown. (C and F) The structures and potencies of HUHS15 (C) and its optimized derivative HUHS15-036 (F). HeLa TKO cells with exogenous caspase-2 expression were treated with titrated compounds. The ATP-based viability data were plotted with compound concentration for EC50 calculation. (D) BID is required for HUHS15-induced caspase-2-dependent cell death. WT and BID^−/− (KO) HeLa TKO cells with exogenous caspase-2 expression, as well as the knockout cells rescued with WT or D60E mutant of BID were treated with HUHS15. ATP-based cell viability and immunoblotting detecting caspase-2 and BID processing are shown. (E) HUHS15-induced caspase-3/7 activation relies on caspase-9 but is independent of PIDDosome. CASP2^−/− (KO) HeLa cells with exogenous caspase-2 expression in the indicated knockout background were treated with HUHS15. Processing of caspase-2, -3, and -7 was analyzed by immunoblotting. (G) Top gRNA hits from the genetic screen of HUHS015-36-induced apoptosis in HeLa TKO cells with exogenous caspase-2 expression. In all the data, indicated cells were treated with the compound for 5 h (for HUHS015-36) or 9 h (for HUHS015) before cell viability measurement and immunoblotting analyses. ATP-based cell viability in panels (B and D) is expressed as mean ± s.d. from three technical replicates. Data in panels (B–F) are representative of three independent experiments. […]

Take `Cc1cccc2nc(-n3nc4c(c3O)CCCC4)[nH]c12` [HUHS015-36]: the EC50 in assay [1] (read-out: EC50, caspase-2-mediated cell death) was found to be 0.06 µM. For the same molecule, the “treated cells that underwent apoptosis” value in assay [1] (pool of CRISPR-Cas9 mutagenized caspase-2-expressing TKO HeLa cells, genetic screen) is given as “Over 95%”. The “caspase-2 activation and cell death” value in assay [2] (PIDD1 or RAIDD knockout, 5 h) is “neither PIDD1 nor RAIDD deficiency had any effects”.
Regarding `Cc1ccc2nc(-n3nc(C)c(Cc4ccccc4)c3O)[nH]c2c1` [HUHS015], the EC50 in assay [1] (read-out: EC50 (half-maximal effective concentration), caspase-2-mediated cell death) was around 6.8 µM. For the same molecule, the cell death result in assay [2] (BID knockout) is reported as “diminished”. Further, the “caspase-2 processing and caspase-3/7 activation” value in assay [2] (RAIDD knockout) is listed as “could still induce caspase-2 processing as well as caspase-3/7 activation”.
